Consider nine compounds from PubChem BioAssay (NCI).

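Test compounds were applied to cells in 96-well plates for 48 hours at 5 doses. GI50 marks 50% less growth. TGI denotes the concentration required for complete inhibition of growth.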

Test systems include SK-MEL-28 melanoma; MOLT-4 leukemia; IGROV1 ovarian; 786-0 renal; NCI-H226 lung; OVCAR-3 ovarian; CCRF-CEM leukemia; EKVX NSCLC; HCC-2998 colon; HCT-15 colon.
Assay in all cases: NCI anticancer screen, dose series, 48 h

`O=c1cccc(C#CC#C[C@@H]2O[C@H]2CO)o1`: the GI50 with SK-MEL-28 melanoma is 0.27 µM; with MOLT-4 leukemia, 0.33 µM; in the experiment with IGROV1 ovarian it was 0.183 µM; in the experiment with 786-0 renal, 0.626 µM; in the experiment with NCI-H226 lung, 0.627 µM; in the experiment on OVCAR-3 ovarian, 2.06 µM. In addition, the GI50 in the experiment on CCRF-CEM leukemia was 0.192 µM; in the experiment on EKVX NSCLC, 1.79 µM; with HCC-2998 colon it was 0.217 µM; in the experiment on HCT-15 colon, 1.42 µM. For the same compound, the TGI was 1.36 µM in the experiment on SK-MEL-28 melanoma; greater than 100 µM in the experiment on MOLT-4 leukemia; 0.339 µM in the experiment with IGROV1 ovarian; 1.43 µM in the experiment with 786-0 renal; 1.4 µM in the experiment with NCI-H226 lung; 3.69 µM with OVCAR-3 ovarian. The TGI with EKVX NSCLC was 3.43 µM; with HCC-2998 colon, 0.55 µM; in the experiment with HCT-15 colon, 3.14 µM.

Turning to `C=C(CN(C)Cc1ccccc1)c1ccc(NC(=O)c2ccc(C(=C)CN(C)Cc3ccccc3)cc2)cc1`, the GI50 was greater than 100 µM in the experiment with SK-MEL-28 melanoma; 49.8 µM in the experiment on MOLT-4 leukemia; 18.5 µM in the experiment on IGROV1 ovarian; 25.6 µM with 786-0 renal; 34.6 µM in the experiment on NCI-H226 lung; greater than 100 µM with OVCAR-3 ovarian. The GI50 is greater than 100 µM with CCRF-CEM leukemia, 73.3 µM with EKVX NSCLC, 37.2 µM in the experiment with HCC-2998 colon and 76.5 µM with HCT-15 colon. Further, the TGI in the experiment on SK-MEL-28 melanoma is greater than 100 µM; in the experiment with MOLT-4 leukemia, greater than 100 µM; in the experiment on IGROV1 ovarian, 53.2 µM; with 786-0 renal, 65.4 µM; in the experiment on NCI-H226 lung, greater than 100 µM; with OVCAR-3 ovarian, greater than 100 µM. In addition, the TGI in the experiment with CCRF-CEM leukemia, in the experiment on EKVX NSCLC, in the experiment with HCC-2998 colon and with HCT-15 colon was greater than 100 µM throughout.

Consider `O=Cc1cc2c(cc1-c1cc3c(cc1C=O)OCO3)OCO2`, for which the TGI in the experiment with SK-MEL-28 melanoma, in the experiment with MOLT-4 leukemia, with IGROV1 ovarian, with 786-0 renal, with NCI-H226 lung and with OVCAR-3 ovarian was greater than 100 µM throughout. Further, the TGI with CCRF-CEM leukemia was 82.7 µM; in the experiment with EKVX NSCLC it was greater than 100 µM; in the experiment on HCC-2998 colon, greater than 100 µM; in the experiment on HCT-15 colon, greater than 100 µM.

In the case of `NC(=O)c1cc(I)ccc1NC(=O)/C=C/c1ccccc1`, the GI50 in the experiment with SK-MEL-28 melanoma is 1.17 µM; in the experiment on MOLT-4 leukemia it was 0.539 µM; in the experiment with IGROV1 ovarian it was 0.917 µM; with 786-0 renal, 1.32 µM; in the experiment on NCI-H226 lung, 1.96 µM; in the experiment with OVCAR-3 ovarian, 0.32 µM. Moreover, the GI50 in the experiment on CCRF-CEM leukemia is 0.36 µM; in the experiment on EKVX NSCLC, 0.787 µM; in the experiment on HCC-2998 colon, 1.38 µM; with HCT-15 colon it was 0.587 µM. The TGI was greater than 86.8 µM with SK-MEL-28 melanoma; 19.9 µM with IGROV1 ovarian; greater than 68.1 µM in the experiment with 786-0 renal; 40.3 µM in the experiment with NCI-H226 lung; 1.01 µM with OVCAR-3 ovarian; greater than 68.8 µM in the experiment on EKVX NSCLC. Further, the figures for the TGI in the experiment with HCC-2998 colon and with HCT-15 colon were 30.9 µM and greater than 100 µM, respectively.

Take `C/C(=N\NC(N)=O)c1sc(-c2nc(C)c(/C(C)=N/NC(N)=O)s2)nc1C`: the TGI in the experiment on SK-MEL-28 melanoma, with MOLT-4 leukemia, in the experiment on IGROV1 ovarian, with 786-0 renal, with NCI-H226 lung and in the experiment on OVCAR-3 ovarian was greater than 100 µM in each case. Further, the TGI in the experiment on CCRF-CEM leukemia was greater than 100 µM; with EKVX NSCLC it was greater than 100 µM; with HCC-2998 colon it was greater than 100 µM; in the experiment with HCT-15 colon, 46.1 µM.

With `CNc1cc2oc(=O)cc(C)c2cc1C`, the TGI in the experiment on SK-MEL-28 melanoma, with MOLT-4 leukemia, in the experiment with IGROV1 ovarian, in the experiment with 786-0 renal, in the experiment on NCI-H226 lung and in the experiment on OVCAR-3 ovarian was greater than 100 µM in each case. Further, the TGI in the experiment with CCRF-CEM leukemia, in the experiment with EKVX NSCLC, with HCC-2998 colon and with HCT-15 colon was greater than 100 µM each time.

As to `COc1ccc(Cl)cc1NC(=O)c1ccc(NC2=C(Cl)C(=O)N(Cc3ccccc3)C2=O)cc1`, the GI50 was greater than 100 µM with SK-MEL-28 melanoma; 1.43 µM in the experiment on MOLT-4 leukemia; greater than 100 µM in the experiment with IGROV1 ovarian; greater than 100 µM with 786-0 renal; greater than 100 µM in the experiment with NCI-H226 lung; 36.3 µM with OVCAR-3 ovarian. In addition, the GI50 in the experiment with CCRF-CEM leukemia was 3.99 µM; in the experiment with EKVX NSCLC, greater than 100 µM; in the experiment with HCC-2998 colon, 14.1 µM; with HCT-15 colon it was 10.7 µM. For the same compound, the TGI in the experiment on SK-MEL-28 melanoma is greater than 100 µM; with MOLT-4 leukemia it was 13.4 µM; in the experiment with IGROV1 ovarian it was greater than 100 µM; in the experiment with 786-0 renal, greater than 100 µM; in the experiment with NCI-H226 lung, greater than 100 µM; in the experiment with OVCAR-3 ovarian, greater than 100 µM. Besides, the TGI with CCRF-CEM leukemia is 94.5 µM; in the experiment with EKVX NSCLC it was greater than 100 µM; with HCC-2998 colon, 28.8 µM; in the experiment with HCT-15 colon, greater than 100 µM.

`O=C(Nc1nc(-c2c[nH]c3ccccc23)cs1)c1n[nH]c(=O)c2ccccc12`: the GI50 is 12.4 µM in the experiment with SK-MEL-28 melanoma; 0.792 µM with MOLT-4 leukemia; 2.01 µM in the experiment with IGROV1 ovarian; 1.48 µM in the experiment on 786-0 renal; 12.3 µM in the experiment with NCI-H226 lung; 13.6 µM with OVCAR-3 ovarian. For the same compound, the GI50 is 1.27 µM in the experiment with CCRF-CEM leukemia, 51.3 µM with EKVX NSCLC, 18.1 µM with HCC-2998 colon and 0.29 µM in the experiment on HCT-15 colon. For the same compound, the TGI in the experiment on SK-MEL-28 melanoma was 49.2 µM; in the experiment on MOLT-4 leukemia, greater than 35.4 µM; in the experiment with IGROV1 ovarian, 34.7 µM; in the experiment with 786-0 renal, greater than 47.5 µM; in the experiment with NCI-H226 lung, 89.8 µM; with OVCAR-3 ovarian it was greater than 83.7 µM. Further, the TGI in the experiment with CCRF-CEM leukemia is 98.8 µM; in the experiment on EKVX NSCLC, greater than 100 µM; in the experiment with HCC-2998 colon, greater than 100 µM; with HCT-15 colon, greater than 36.7 µM.

For the compound `Cc1nc2c(N)ncnc2o1`, the TGI in the experiment with SK-MEL-28 melanoma, in the experiment with MOLT-4 leukemia, in the experiment with IGROV1 ovarian, in the experiment on 786-0 renal, in the experiment on NCI-H226 lung and in the experiment on OVCAR-3 ovarian was greater than 100 µM each time. Also, the TGI in the experiment on CCRF-CEM leukemia, with EKVX NSCLC, in the experiment on HCC-2998 colon and with HCT-15 colon was greater than 100 µM throughout.
